Assay results taken from ChEMBL document CHEMBL1201862, “PubChem BioAssay data set” (2004).
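Cultured in 96-well plates, cells were exposed to test compound for 48 hours across five concentrations. Abbreviation: GI50, concentration required for 50% inhibition of growth.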 The source made the active and inactive calls. Cut-off read from the data, not from the text of the source: active = GI50 up to about 1.1 µM and inactive = higher.

Key:
Assay in all cases: growth of human tumour cells (NCI), 48 h
COLO 205 = test system: COLO 205
EKVX = test system: EKVX
HCT-116 = test system: HCT-116
Hs-578T = test system: Hs-578T
IGROV-1 = test system: IGROV-1
MDA-MB-231 = test system: MDA-MB-231
NCI-H226 = test system: NCI-H226
NCI-H460 = test system: NCI-H460
OVCAR-3 = test system: OVCAR-3
OVCAR-5 = test system: OVCAR-5
OVCAR-8 = test system: OVCAR-8
SK-MEL-28 = test system: SK-MEL-28
SK-OV-3 = test system: SK-OV-3
SNB-19 = test system: SNB-19
UACC-62 = test system: UACC-62
UO-31 = test system: UO-31
MOLT-4 = test system: MOLT-4

SMILES | GI50 (COLO 205) | GI50 (EKVX) | GI50 (HCT-116) | GI50 (Hs-578T) | GI50 (IGROV-1) | GI50 (MDA-MB-231) | GI50 (NCI-H226) | GI50 (NCI-H460) | GI50 (OVCAR-3) | GI50 (OVCAR-5) | GI50 (OVCAR-8) | GI50 (SK-MEL-28) | GI50 (SK-OV-3) | GI50 (SNB-19) | GI50 (UACC-62) | GI50 (UO-31) | GI50 (MOLT-4)
Oc1[nH]c(Nc2cccc(CC(F)(F)F)c2)nc2ncnc1-2 | > 100 µM (inactive) | > 100 µM (inactive) | > 100 µM (inactive) | > 100 µM (inactive) | > 100 µM (inactive) | > 100 µM (inactive) | > 100 µM (inactive) | > 100 µM (inactive) | > 100 µM (inactive) | > 100 µM (inactive) | > 100 µM (inactive) | > 100 µM (inactive) | > 100 µM (inactive) | > 100 µM (inactive) | > 100 µM (inactive) | > 100 µM (inactive) | –
C=C1C2CC3CCC2C(OC(=O)c2ccccc2C(=O)O)C13 (configuration not stated) | > 100 µM (inactive) | > 100 µM (inactive) | > 100 µM (inactive) | > 100 µM (inactive) | > 100 µM (inactive) | > 100 µM (inactive) | > 100 µM (inactive) | > 100 µM (inactive) | 95.9 µM (inactive) | > 100 µM (inactive) | > 100 µM (inactive) | > 100 µM (inactive) | > 100 µM (inactive) | > 100 µM (inactive) | > 100 µM (inactive) | > 100 µM (inactive) | > 100 µM (inactive)
O=C(Nc1ccccc1)OCCN=c1c2ccccc2ccc2ccccc12 | 21 µM (inactive) | 24.9 µM (inactive) | 16.9 µM (inactive) | 11.5 µM (inactive) | 27.9 µM (inactive) | 24.9 µM (inactive) | 32.1 µM (inactive) | 22.8 µM (inactive) | 17.5 µM (inactive) | 41.5 µM (inactive) | 26.5 µM (inactive) | 23.7 µM (inactive) | 32.1 µM (inactive) | 15.9 µM (inactive) | 15 µM (inactive) | 17 µM (inactive) | 15.7 µM (inactive)
O=c1c2ccccc2sc2cccc(NCCCN3CCN(CCCNc4cccc5sc6ccccc6c(=O)c45)CC3)c12 | > 100 µM (inactive) | > 100 µM (inactive) | > 100 µM (inactive) | 52.7 µM (inactive) | > 100 µM (inactive) | > 100 µM (inactive) | > 100 µM (inactive) | > 100 µM (inactive) | > 100 µM (inactive) | > 100 µM (inactive) | – | > 100 µM (inactive) | > 100 µM (inactive) | > 100 µM (inactive) | 64.7 µM (inactive) | > 100 µM (inactive) | > 100 µM (inactive)
Cc1cc(=O)n2nc(SCc3ccccc3)sc2n1 | > 100 µM (inactive) | – | > 100 µM (inactive) | 25.4 µM (inactive) | > 100 µM (inactive) | > 100 µM (inactive) | > 100 µM (inactive) | > 100 µM (inactive) | > 100 µM (inactive) | > 100 µM (inactive) | > 100 µM (inactive) | > 100 µM (inactive) | > 100 µM (inactive) | > 100 µM (inactive) | 28.4 µM (inactive) | 24.3 µM (inactive) | 46.5 µM (inactive)
O=CN1CCN(C(=O)c2cc(Cl)cc(Cl)c2)C1=S | 17.1 µM (inactive) | 17.9 µM (inactive) | 18.6 µM (inactive) | 21 µM (inactive) | 18.5 µM (inactive) | 15.6 µM (inactive) | 14.7 µM (inactive) | 22.5 µM (inactive) | 14.8 µM (inactive) | 21.9 µM (inactive) | 19.1 µM (inactive) | 18.4 µM (inactive) | 17.5 µM (inactive) | 20.5 µM (inactive) | 15.8 µM (inactive) | – | 15 µM (inactive)
CC(Oc1ccc(Cl)cc1Cl)C(=O)NN1C(=O)CC(=O)NC1=S (configuration not stated) | > 100 µM (inactive) | > 100 µM (inactive) | > 100 µM (inactive) | > 100 µM (inactive) | > 100 µM (inactive) | > 100 µM (inactive) | 82.8 µM (inactive) | > 100 µM (inactive) | > 100 µM (inactive) | > 100 µM (inactive) | > 100 µM (inactive) | > 100 µM (inactive) | > 100 µM (inactive) | > 100 µM (inactive) | 36.5 µM (inactive) | > 100 µM (inactive) | –
CCOC(=O)c1cc(C#N)[nH]c1-c1ccsc1 | 32.2 µM (inactive) | 17.6 µM (inactive) | 38.4 µM (inactive) | 25.7 µM (inactive) | 40.4 µM (inactive) | 41.6 µM (inactive) | 44.3 µM (inactive) | 32.2 µM (inactive) | 31 µM (inactive) | 34.8 µM (inactive) | 36.6 µM (inactive) | 40.2 µM (inactive) | 43.8 µM (inactive) | 56.1 µM (inactive) | 47.1 µM (inactive) | 0.114 µM (active) | 15.3 µM (inactive)
O=C1C(C(O)(C(F)(F)Cl)C(F)(F)Cl)CCC1C(O)(C(F)(F)Cl)C(F)(F)Cl (configuration not stated) | 4.17 µM (inactive) | 4.1 µM (inactive) | 2.5 µM (inactive) | 1.9 µM (inactive) | 4.98 µM (inactive) | 3.34 µM (inactive) | 3.6 µM (inactive) | > 10 µM (inactive) | 7.28 µM (inactive) | 5.43 µM (inactive) | 3.94 µM (inactive) | 3.42 µM (inactive) | 5.51 µM (inactive) | 4.3 µM (inactive) | 3.25 µM (inactive) | – | 5.55 µM (inactive)
CC(=O)O[C@H]1C(=O)[C@@]2(C)[C@H]([C@H](OC(=O)c3ccccc3)[C@]3(O)C[C@H](OC(=O)[C@H](O)[C@@H](NC(=O)c4ccccc4)c4cccc(N(C)C)c4)C(C)=C1C3(C)C)[C@]1(OC(C)=O)CO[C@@H]1C[C@@H]2O | 0.0432 µM (active) | > 32.1 µM (inactive) | 0.0174 µM (active) | 0.0276 µM (active) | 0.0537 µM (active) | 0.542 µM (active) | 0.665 µM (active) | 0.0419 µM (active) | 0.0308 µM (active) | 0.157 µM (active) | 0.155 µM (active) | 0.575 µM (active) | 0.105 µM (active) | 0.148 µM (active) | 0.254 µM (active) | 1.96 µM (inactive) | 0.013 µM (active)
COc1ccc(Oc2cnn(C(Br)(Br)C(C)=O)c(=O)c2Br)cc1 | 13.4 µM (inactive) | 17.1 µM (inactive) | 7 µM (inactive) | 26.1 µM (inactive) | 18.5 µM (inactive) | 17.9 µM (inactive) | 21.4 µM (inactive) | 18.8 µM (inactive) | 4.19 µM (inactive) | 17.7 µM (inactive) | 13.3 µM (inactive) | 16 µM (inactive) | 24.3 µM (inactive) | 24.5 µM (inactive) | 15.7 µM (inactive) | 7.66 µM (inactive) | 0.861 µM (active)
CC1(C)OCC(C2OC(=O)C(OCc3ccccc3)=C2OCc2ccccc2)O1 (configuration not stated) | 22.2 µM (inactive) | 37.6 µM (inactive) | 31.3 µM (inactive) | 70.6 µM (inactive) | 64.3 µM (inactive) | 24.6 µM (inactive) | 32.7 µM (inactive) | 41 µM (inactive) | 49.2 µM (inactive) | 60.1 µM (inactive) | 50.4 µM (inactive) | 65.6 µM (inactive) | 52.6 µM (inactive) | 55.3 µM (inactive) | 22.4 µM (inactive) | 37.1 µM (inactive) | 23 µM (inactive)
O=C1Nc2ccc(Br)cc2/C1=N/c1ccc(Cl)cc1 | 1.78 µM (inactive) | 15.9 µM (inactive) | 14.3 µM (inactive) | 33.6 µM (inactive) | – | 15.5 µM (inactive) | 23.4 µM (inactive) | 14.4 µM (inactive) | 15.8 µM (inactive) | 18.2 µM (inactive) | 11.7 µM (inactive) | 23.3 µM (inactive) | 40.8 µM (inactive) | 28 µM (inactive) | 0.237 µM (active) | 13.5 µM (inactive) | 25.6 µM (inactive)
Cn1c([C@H](C#N)c2ncccc2[N+](=O)[O-])nc2ccccc21 | – | 56 µM (inactive) | > 100 µM (inactive) | 29.9 µM (inactive) | – | > 100 µM (inactive) | > 100 µM (inactive) | 76.4 µM (inactive) | > 100 µM (inactive) | > 100 µM (inactive) | 49.3 µM (inactive) | > 100 µM (inactive) | 32.8 µM (inactive) | 50 µM (inactive) | > 100 µM (inactive) | > 100 µM (inactive) | > 100 µM (inactive)
Cc1cn(C(=O)NC23CC4CC(CC(C4)C2)C3)c(=O)[nH]c1=O | 24 µM (inactive) | 23.9 µM (inactive) | 34.4 µM (inactive) | 32.7 µM (inactive) | – | 24.7 µM (inactive) | 24.9 µM (inactive) | 42.9 µM (inactive) | 88.3 µM (inactive) | > 100 µM (inactive) | 32.7 µM (inactive) | 67.5 µM (inactive) | 34.4 µM (inactive) | 71.1 µM (inactive) | 21.8 µM (inactive) | 69.5 µM (inactive) | 41.5 µM (inactive)
Cc1cc(C)nc(NC(P(=O)(O)O)P(=O)(O)O)n1 | > 100 µM (inactive) | > 100 µM (inactive) | > 100 µM (inactive) | > 100 µM (inactive) | > 100 µM (inactive) | > 100 µM (inactive) | > 100 µM (inactive) | > 100 µM (inactive) | > 100 µM (inactive) | > 100 µM (inactive) | > 100 µM (inactive) | – | > 100 µM (inactive) | > 100 µM (inactive) | > 100 µM (inactive) | > 100 µM (inactive) | –
COc1ccc(OC)c(-c2cc(=O)c3c(OC)c(OC)c(OC)c(OC)c3o2)c1 | 17.1 µM (inactive) | 33 µM (inactive) | 27.6 µM (inactive) | 37.6 µM (inactive) | 29.9 µM (inactive) | 40.2 µM (inactive) | 26.2 µM (inactive) | 25.4 µM (inactive) | 23 µM (inactive) | 49.1 µM (inactive) | 25.7 µM (inactive) | 40.1 µM (inactive) | 22.8 µM (inactive) | 34.4 µM (inactive) | 24.3 µM (inactive) | 15.4 µM (inactive) | 9.44 µM (inactive)
